# According to patent EP3290412A1, “HIV-1 NUCLEOCAPSID INHIBITORS” (Università degli Studi di Siena, priority 2016, dated 2018):
# Where two headings read alike, the source gives them in different places.
# How the values were obtained:
# Type in all cases: cell-based
# [1] = tested on: HIV-1 reference strain NL4-3; assay: MonoCycle assay (TZM-bl cells)
# Outline: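 TZM-bl cells (20,000/well) were infected with NL4-3 in the presence of five-fold serial inhibitor dilutions. After 48 h, cells were lysed and luciferase luminescence (RLU) was counted. IC50 was derived from the RLU data.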
# [2] = tested on: Peripheral blood mononuclear cells (PBMC); conditions: human, 7 days
# Outline: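 Healthy-donor PBMC stimulated 2 days with 5 µg/mL PHA, then seeded at 1x10^5 cells/well in medium with 20 IU/mL IL-2 and exposed to compound for 7 days. Viability measured by MTS (4 h, OD 490 nm). TD50 interpolated from dose versus percent mortality relative to untreated cells.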
# [3] = tested on: HeLa cells; assay: HeLa Proliferation assay (CellTiter Glo); conditions: 72 hours
# Outline: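 HeLa cells in phenol red-free DMEM + 10% FBS plated at 2000 cells/well, recovered 4 h, then exposed to compounds for 72 h at 37 °C, 5% CO2. Viability read by CellTiter Glo luminescence.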
# [4] = Human immunodeficiency virus 1, NL43, TZM-bl cells, NL4-3, 48 hours, read-out: Mono Cycle IC50
# [5] = Human immunodeficiency virus 1, NL43, TZM-bl, 48 h, read-out: Mono Cycle IC50 nM
SMILES,"IC50 [1, 4] [nM]",Proliferation assay PBMC TD50 [2] [nM],Proliferation assay HELA TD50 [3] [nM],"IC50 [1, 5] [nM]"
"C[C@@H](NC(=O)c1nc(-c2cc(OCc3ccccc3)ccn2)nc(O)c1O)C1CCCCC1 [Compound 35, (R)-2-(4-(benzyloxy)pyridin-2-yl)-N-(1-cyclohexylethyl)-5,6-dihydroxypyrimidine-4-carboxamide]",> 50000,670,4589.6,
"C[C@@H](NC(=O)c1nc(-c2ccc(C(F)(F)F)cn2)nc(O)c1O)C1CCCCC1 [Compound 36, (R)-N-(1-cyclohexylethyl)-5,6-dihydroxy-2-(5-(trifluoromethyl)pyridin-2-yl)pyrimidine-4-carboxamide]",,465,4717.7,45400
"COc1cccc(-c2nc(O)c(O)c(C(=O)N[C@H](C)C3CCCCC3)n2)n1 [Compound 37, (R)-N-(1-cyclohexylethyl)-5,6-dihydroxy-2-(6-methoxypyridin-2-yl)pyrimidine-4-carboxamide]",,1500,897.6,6910
"C[C@H](NC(=O)c1nc(-c2ccccn2)nc(O)c1O)C1CCCCC1 [Compound 38, (S)-N-(1-cyclohexylethyl)-5,6-dihydroxy-2-(pyridin-2-yl)pyrimidine-4-carboxamide]",,2450,578.2,11200
"Cc1cccnc1-c1nc(O)c(O)c(C(=O)N[C@@H](C)C2CCCCC2)n1 [Compound 39, (S)-N-(1-cyclohexylethyl)-5,6-dihydroxy-2-(3-methylpyridin-2-yl)pyrimidine-4-carboxamide]",,2300,878.8,> 50000
"C[C@@H](NC(=O)c1nc(-c2cccc(C(F)(F)F)n2)nc(O)c1O)C1CCCCC1 [Compound 44, (R)-N-(1-cyclohexylethyl)-5,6-dihydroxy-2-(6-(trifluoromethyl)pyridin-2-yl)pyrimidine-4-carboxamide]",> 50000,21550,>50000,
"C[C@@H](NC(=O)c1nc(-c2cccc(N)n2)nc(O)c1O)C1CCCCC1 [Compound 45, (R)-2-(6-aminopyridin-2-yl)-N-(1-cyclohexylethyl)-5,6-dihydroxypyrimidine-4-carboxamide]",,3360,3227.2,> 50000
"O=C(NCC1CCC1)c1nc(-c2cc3ccccc3cn2)nc(O)c1O [Compound 47, N-(cyclobutylmethyl)-5,6-dihydroxy-2-(isoquinolin-3-yl)pyrimidine-4-carboxamide]",,4900,3332.6,8930
"C[C@@H](NC(=O)c1nc(-c2cc(N)ccn2)nc(O)c1O)C1CCCCC1 [Compound 48, (R)-2-(4-aminopyridin-2-yl)-N-(1-cyclohexylethyl)-5,6-dihydroxypyrimidine-4-carboxamide]",,2600,1549.6,9870
"C[C@@H](NC(=O)c1nc(-c2ccc(Cl)cn2)nc(O)c1O)C1CCCCC1 [Compound 49, (R)-2-(5-chloropyridin-2-yl)-N-(1-cyclohexylethyl)-5,6-dihydroxypyrimidine-4-carboxamide]",,3400,2099.9,10900
"C[C@@H](NC(=O)c1nc(-c2ccc(CNCc3ccccc3)cn2)nc(O)c1O)C1CCCCC1 [Compound 53, (R)-2-(5-((benzylamino)methyl)pyridin-2-yl)-N-(1-cyclohexylethyl)-5,6-dihydroxypyrimidine-4-carboxamide]",,790,2876.3,38100
"CC1CCCCC1NC(=O)c1nc(-c2ccccn2)nc(O)c1O (stereo not drawn) [Compound 59, 5,6-dihydroxy-N-(2-methylcyclohexyl)-2-(pyridin-2-yl)pyrimidine-4-carboxamide]",,2180,694.6,> 50000
"CCNCc1ccc(-c2nc(O)c(O)c(C(=O)N[C@H](C)C3CCCCC3)n2)nc1 [Compound 60, (R)-N-(1-cyclohexylethyl)-2-(5-((ethylamino)methyl)pyridin-2-yl)-5,6-dihydroxypyrimidine-4-carboxamide]",,1600,6428.6,> 50000
"C[C@@H](NC(=O)c1nc(-c2ccc(NC(=O)OC(C)(C)C)cn2)nc(O)c1O)C1CCCCC1 [Compound 61, tert-butyl (R)-(6-(4-((1-cyclohexylethyl)carbamoyl)-5,6-dihydroxypyrimidin-2-yl)pyridin-3-yl)carbamate]",,2400,2035.8,7180
"CC(=O)Nc1ccc(-c2nc(O)c(O)c(C(=O)N[C@H](C)C3CCCCC3)n2)nc1 [Compound 62, (R)-2-(5-acetamidopyridin-2-yl)-N-(1-cyclohexylethyl)-5,6-dihydroxypyrimidine-4-carboxamide]",,1870,4551.9,> 50000
"CC(C)(CNC(=O)c1nc(-c2ccccn2)nc(O)c1O)C1CCCC1 [Compound 63, N-(2-cyclopentyl-2-methylpropyl)-5,6-dihydroxy-2-(pyridin-2-yl)pyrimidine-4-carboxamide]",,2100,398.6,11800
"C[C@H](CC1CCCCC1)NC(=O)c1nc(-c2ccccn2)nc(O)c1O [Compound 64, (R)-N-(1-cyclohexylpropan-2-yl)-5,6-dihydroxy-2-(pyridin-2-yl)pyrimidine-4-carboxamide]",,2500,471.7,23700
"CC(NC(=O)c1nc(-c2ccccn2)nc(O)c1O)C1CCCC1 (stereo not drawn) [Compound 65, N-(1-cyclopentylethyl)-5,6-dihydroxy-2-(pyridin-2-yl)pyrimidine-4-carboxamide]",,3100,883.9,> 50000
"COc1cc(-c2nc(O)c(O)c(C(=O)N[C@H](C)C3CCCCC3)n2)nc2ccccc12 [Compound 68, N-[(1R)-1-cyclohexylethyl]-2-(4-methoxyquinolin-2-yl)-5,6-bis(oxidanyl)pyrimidine-4-carboxamide]",44300,2660,5700.7,
"COc1ccnc(-c2nc(O)c(O)c(C(=O)N[C@@H](C)C3CCCCC3)n2)c1 [Compound 69, N-[(1S)-1-cyclohexylethyl]-2-(4-methoxypyridin-2-yl)-5,6-bis(oxidanyl)pyrimidine-4-carboxamide]",,7110,3899.9,> 50000
"C[C@@H](NC(=O)c1nc(-c2cc(N3CCN(C)CC3)ccn2)nc(O)c1O)C1CCCCC1 [Compound 76, (R)-N-(1-cyclohexylethyl)-5,6-dihydroxy-2-(4-(4-methylpiperazin-1-yl)pyridin-2-yl)pyrimidine-4-carboxamide]",,2500,3683.1,18300
